Laboratory results from US4861897A, “2-Aryloxyalkylaminobenzoxazoles and 2-aryloxyalkylaminobenzothiazoles” (Ortho Pharmaceutical Corporation, priority 1987, dated 1989).

Legend:
[1] = biological target: T1, parietal cell H^+ K^+ ATPase (Oryctolagus cuniculus, UniProt P27112); assay: Inhibition of parietal cell H+ K+ ATPase; format: biochemical, New Zealand white rabbits; conditions: Example 49; for inhibition at 100 µM: @ 10^-4 M, read-out: % Inhibition at Concentration (H+ K+ ATPase); for IC50: given as "50% @ x μM", read-out: % Inhibition at Concentration (H+ K+ ATPase): concentration given for 50% inhibition
T1 construct: determined in fundic mucosa from New Zealand white rabbits which were homogenized; from tissue; host or cells: fundic mucosa of New Zealand white rabbits, homogenized; membrane protein
T1 sequence (P27112 2-1035 limits assumed): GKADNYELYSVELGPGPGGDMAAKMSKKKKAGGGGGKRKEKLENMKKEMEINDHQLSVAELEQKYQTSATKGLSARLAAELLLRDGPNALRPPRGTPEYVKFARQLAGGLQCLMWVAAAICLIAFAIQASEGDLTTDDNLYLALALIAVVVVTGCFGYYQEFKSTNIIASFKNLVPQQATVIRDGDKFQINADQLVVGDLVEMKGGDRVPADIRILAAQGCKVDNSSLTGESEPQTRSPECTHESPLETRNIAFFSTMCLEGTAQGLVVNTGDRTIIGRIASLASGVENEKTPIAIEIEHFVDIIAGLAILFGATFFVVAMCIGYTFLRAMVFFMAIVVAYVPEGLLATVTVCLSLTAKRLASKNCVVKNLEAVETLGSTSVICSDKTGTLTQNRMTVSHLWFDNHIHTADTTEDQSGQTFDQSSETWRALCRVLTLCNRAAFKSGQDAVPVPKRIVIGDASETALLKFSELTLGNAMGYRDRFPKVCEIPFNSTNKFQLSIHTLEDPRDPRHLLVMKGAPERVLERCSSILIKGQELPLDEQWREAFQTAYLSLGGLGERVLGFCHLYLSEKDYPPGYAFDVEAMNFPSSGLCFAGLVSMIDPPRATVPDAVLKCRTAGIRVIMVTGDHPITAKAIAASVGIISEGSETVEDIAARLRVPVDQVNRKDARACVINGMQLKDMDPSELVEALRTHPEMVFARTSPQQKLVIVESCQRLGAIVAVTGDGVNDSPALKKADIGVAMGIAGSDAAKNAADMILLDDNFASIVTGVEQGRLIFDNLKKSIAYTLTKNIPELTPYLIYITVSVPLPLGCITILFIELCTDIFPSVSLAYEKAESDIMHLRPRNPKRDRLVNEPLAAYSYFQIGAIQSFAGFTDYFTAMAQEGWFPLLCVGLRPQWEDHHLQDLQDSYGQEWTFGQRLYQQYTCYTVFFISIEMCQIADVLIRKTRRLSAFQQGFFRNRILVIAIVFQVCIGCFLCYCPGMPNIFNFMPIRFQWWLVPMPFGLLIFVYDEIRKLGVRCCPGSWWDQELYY
T1 sequence (P18597 whole entry partner): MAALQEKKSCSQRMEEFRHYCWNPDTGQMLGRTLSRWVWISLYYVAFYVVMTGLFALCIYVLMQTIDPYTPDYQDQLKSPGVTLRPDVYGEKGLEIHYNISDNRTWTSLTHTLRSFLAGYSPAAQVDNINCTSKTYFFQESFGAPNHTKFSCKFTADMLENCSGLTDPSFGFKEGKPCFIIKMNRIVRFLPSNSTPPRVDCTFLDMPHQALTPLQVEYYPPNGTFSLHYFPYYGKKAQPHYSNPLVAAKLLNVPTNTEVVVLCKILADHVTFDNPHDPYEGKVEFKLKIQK
Description: Inhibition of Parietal Cell H^+ K^+ ATPase
The activity was measured in a 1 ml incubation volume containing 50 mM Tris pH 7.4, 2 mM MgCl2, 2 mM Na2 ATP, with or without 20 mM KCl and vehicle control (dimethylsulfoxide) or test compound added in a 0.02 ml volume. Typically, 20-50 μg membrane protein was added and the tubes were preincubated with test compound for 10 minutes at 37° C. Substrate, Na2 ATP, was then added and the tubes were incubated for another 15 minutes at 37° C. The reaction was stopped by the addition of 1 ml 14% trichloroacetic acid and the samples were centrifuged at 2,000 xg for 10 minutes. The amount of inorganic phosphate present in an aliquot of supernatant was determined. H^+ K^+ ATPase activity was determined after correcting for the basal (Mg^++ only) enzyme activity present in the membrane preparation.

[2] = test system: histamine stimulated parietal cell; assay: Isolated parietal cell assay, inhibition of 14C-aminopyrine accumulation, histamine stimulated; format: cell-based, rabbit; conditions: Oryctolagus cuniculus, 20 min, Example 48, 37° C., read-out: IC50 vhist (inhibition of 14C-AP accumulation in histamine stimulated parietal cell)
Description: (§1) Isolated Parietal Cell Assay
(§2) The isolated parietal cell assay was conducted using the procedures of Batzri, S. et al., Biochemica et Biophysica Acta 508, 328 (1978) and Soll, A. H. Am. J. Physiol. 238, G366 (1980). Basically, parietal cells were isolated from the fundic mucosa of rabbit stomachs by a four-stage collagenase digestion process. The supernatant fractions from the last two stages of this process contain the individual parietal cells. This cell suspension was centrifuged and reconstituted in a modified Hank's buffer to contain 1-2×10^6 cells/ml. […] This accumulation was stimulated by histamine and was blocked by H2 antagonists. The cells were incubated with 0.4-0.5×10^6 cpm ^14 C-AP, with various concentrations of histamine as a stimulant, 1×10^-5 M isobutylmethylxanthine, and the test compound added in a 20 μl volume of buffer or DMSO. The flasks were incubated in a shaking water bath at 37° C. for 20 minutes. Two aliquots were then taken from each flask and cell pellets were collected by centrifugation. The pellets were solubilized with Protosol (New England Nuclear) and radioactivity determined by liquid scintillation spectrometry. Data is presented as the IC50 vhist, the concentration of compound required to inhibit ^14 C-AP accumulation in the histamine stimulated parietal cell by 50%. When dibutyryl cAMP was used to stimulate the cells instead of histamine, a similar inhibition of ^14 C-AP accumulation was measured and the data are presented as the IC50 vcAMP, the concentration required to inhibit ^14 C-AP accumulation in the cAMP stimulated parietal cells by 50%.

[3] = test system: cAMP stimulated parietal cells; assay: Isolated parietal cell assay, inhibition of 14C-aminopyrine accumulation, dibutyryl cAMP stimulated; format: cell-based, rabbit; conditions: Oryctolagus cuniculus, 20 min, Example 48, 37° C., read-out: IC50 vcAMP (inhibition of 14C-AP accumulation in cAMP stimulated parietal cells)
Description: as §1, §2

acid output = assay: Gastric secretion, acid output in pylorus ligated rats; format: in vivo, male Charles River Sprague Dawley derived rats; conditions: Example 50, i.d. or s.c., four hours after pylorus ligation, compared to control; for response vs control in vivo at 20 mg/kg / response vs control in vivo at 40 mg/kg: Rattus norvegicus, 4 h, read-out: % Acid Secreted at mpK; for response vs control in vivo at 20 mg/kg: @ 20 mpK; for response vs control in vivo at 40 mg/kg: @ 40 mpK; for % Acid Secreted at mpK: @ 10 mpK
Description: The inhibitory activity of the compounds on acid output was tested using pylorus ligation in a modification of the procedure of Shay, H. et al., Gastroenterology 26, 906 (1954). Basically, male Charles River Sprague Dawley derived rats weighing 150-300 grams were deprived of food but not water for 18-24 hours prior to use. Water was withheld during the experiment, however. The rats were weighed, anesthetized with ether and the pylorus ligated according to the method of Shay et al., supra. Treatment or vehicle control was then administered intraduodenally (i.d.) or subcutaneously (s.c.). Rats were housed two/cage and sacrificed with CO2 four hours after ligation. The stomachs were removed, rinsed, and contents emptied into a graduated centrifuge tube. The tubes were centrifuged, the volume of gastric juice recorded, and any samples obviously contaminated by feces, food or blood were eliminated. A 1 ml aliquot of gastric juice was titrated with 0.1N NaOH to a pH of 7.0-7.4. The volume of gastric juice secreted, the acid concentration, and the product of the volume times the concentration, i.e., the total amount of acid secreted, were measured.

Compound	inhibition at 100 µM [1] [%]	IC50 [2] [nM]	IC50 [3] [nM]	response vs control in vivo at 20 mg/kg (acid output) [%]	IC50 [1] [µM]	response vs control in vivo at 40 mg/kg (acid output) [%]	% Acid Secreted at mpK (acid output) [%]
CCCCN(CCCC)CCOc1ccc(/C=C/c2nc3ccccc3o2)cc1 [Example 17, (E)-2-[2-(4-Dibutylaminoethoxyphenyl)ethenyl]benzoxazole]	43	260	540	43	–	–	–
C(=C\c1nc2ccccc2s1)/c1ccc(OCCCCN2CCCC2)cc1 [Example 42, (E)-2-[2-(4-Pyrrolidinobutoxyphenyl)ethenyl]benzothiazole]	–	160	260	–	17	20	–
CCN(CC)CCCOc1ccc(/C=C/c2nc3ccccc3s2)cc1 [Example 30, (E)-2-[2-(4-Diethylaminopropoxyphenyl)ethenyl]benzothiazole]	–	370	150	–	–	71	–
CCCN(CCC)CCCOc1ccc(-c2nc3ccccc3s2)cc1 [Example 44, 2-(4-Dipropylaminopropoxyphenyl)benzothiazole]	67	210	140	42	–	–	–
CCCN(CCC)CCCOc1ccc(/C=C/c2nc3ccccc3o2)cc1 [Example 9, (E)-2-[2-(4-Dipropylaminopropoxyphenyl)ethenyl]benzoxazole]	–	220	350	77	25	97	29
COc1ccccc1N1CCN(CCCOc2ccc(/C=C/c3nc4ccccc4o3)cc2)CC1 [Example 14]	43	600	800	8	–	–	–
C(=C\c1nc2ccccc2o1)/c1ccc(OCCCCN2CCCCC2)cc1 [Example 19]	–	170	330	42	40	–	–
C(=C\c1nc2ccccc2o1)/c1ccc(OCCCn2ccnc2)cc1 [Example 10, (E)-2-[2-(4-(1H-Imidazol-1-yl)propoxyphenyl)ethenyl]benzoxazole]	–	290	250	26	64	–	–
C(=C\c1nc2ccccc2o1)/c1ccc(OCCCCCn2ccnc2)cc1 [Example 24]	–	280	230	45	13	–	–
CCCN(CCC)CCCOc1c(OC)cc(/C=C/c2nc3ccccc3o2)cc1OC [Example 46, (E)-2-[2-(3,5-Dimethoxy-4-dipropylaminopropoxyphenyl)ethenyl]benzoxazole]	–	150	360	46	33	–	–
C(=C\c1nc2ccccc2s1)/c1ccc(OCCCCn2ccnc2)cc1 [Example 40, (E)-2-[2-(4-(1H-Imidazol-1-yl)butoxyphenyl)ethenyl]benzothiazole]	–	200	260	–	–	17	–
COc1ccc2nc(/C=C/c3cccc(OCCCCn4ccnc4)c3)oc2c1 [Example 7, (E)-2-[2-(3-(1H-Imidazol-1-yl)butoxyphenyl)ethenyl]-6-methoxybenzoxazole]	–	120	180	–	74	–	–
CCCCN(CCCC)CCCOc1cccc(/C=C/c2nc3ccccc3s2)c1 [Example 25]	61	200	330	40	–	–	–
C(=C\c1nc2ccccc2o1)/c1cccc(OCCCn2ccnc2)c1 [Example 4]	–	210	340	38	10	–	–
CCCN(CCC)CCCCOc1ccc(/C=C/c2nc3ccccc3o2)cc1Cl [Example 45, (E)-2-[2-(3-Chloro-4-dipropylaminobutoxyphenyl]ethenyl]benzoxazole]	–	800	740	42	17.5	–	–
CCCCN(CCCC)CCCOc1ccc(/C=C/c2nc3ccc(OC)cc3o2)cc1 [Example 16, (E)-2-[2-(4-Dibutylaminopropoxyphenyl)ethenyl]-6-methoxybenzoxazole]	–	80	50	–	26	64	–
CCN(CC)CCCCOc1ccc(/C=C/c2nc3ccccc3s2)cc1 [Example 41]	–	180	350	52	44	–	–
CN1CCN(CCCOc2cccc(/C=C/c3nc4ccccc4o3)c2)CC1 [Example 2, (E)-2-[2-[3-[3-(4-Methylpiperazino)propoxy]phenyl]ethenyl]benzoxazole]	–	1200	410	9	94	–	–
CCN(CC)CCCOc1ccc(/C=C/c2nc3ccccc3o2)cc1 [Example 11, (E)-2-[2-(4-Diethylaminopropoxyphenyl)ethenyl]benzoxazole]	20	320	980	–	–	54	–
CCCN(CCC)CCCOc1ccc(/C=C/c2nc3ccccc3s2)cc1 [Example 29, (E)-2-[2-(4-Dipropylaminopropoxyphenyl)ethenyl]benzothiazole]	–	260	210	30	–	–	–
CCN(CC)CCCCOc1ccc(/C=C/c2nc3ccccc3o2)cc1 [Example 22]	–	80	120	31	74	–	–
C(=C\c1nc2ccccc2o1)/c1ccc(OCCCN2CCCCC2)cc1 [Example 12, (E)-2-[2-[4-(3-Piperidinopropoxy)phenyl]ethenyl]benzoxazole]	–	260	150	–	27	88	–
COc1ccccc1N1CCN(CCCOc2ccc(/C=C/c3nc4ccccc4s3)cc2)CC1 [Example 31]	33	1700	3400	11	–	–	–
CCCCN(CCCC)CCCCOc1ccc(/C=C/c2nc3ccccc3o2)cc1 [Example 18]	–	180	< 10000	–	20	–	14
CCCCN(CCCC)CCCOc1ccc(/C=C/c2nc3cc(Cl)ccc3s2)cc1 [Example 36, (E)-2-[2-(4-Dibutylaminopropoxyphenyl)ethenyl]-5-chlorobenzothiazole]	52	400	500	–	–	26	–
C(=C\c1nc2ccccc2s1)/c1ccc(OCCCn2ccnc2)cc1 [Example 32, (E)-2-[2-(4-(1H-Imidazol-1-yl)propoxyphenyl)ethenyl]benzothiazole]	–	130	340	22	–	–	–
CCCCN(CCCC)CCCOc1ccc(-c2nc3ccccc3s2)cc1 [Example 43, 2-(4-Dibutylaminopropoxyphenyl)benzothiazole]	–	250	2600	–	18	–	–
